# Measured values from patent publication US20250255867A1 (Kadmon Corporation, LLC, priority 2022, published 2025).
# Details: Cohort 2 200 mg BID
structure (smiles),measurement,value
"CC(C)NC(=O)COc1cccc(-c2nc(Nc3ccc4[nH]ncc4c3)c3ccccc3n2)c1 [Belumosudil, 2-{3-[4-(1H-indazol-5-ylamino)-2-quinazolinyl]phenoxy}-N-(propan-2-yl) acetamide]",Conjunctivitis: Affected/At Risk (%),(6.25%)
same,Constipation: # Events,1
same,Constipation: Affected/At Risk,1/16
same,Constipation: Affected/At Risk (%),(6.25%)
same,Contrast media allergy: # Events,2
same,Contrast media allergy: Affected/At Risk,2/16
same,Contrast media allergy: Affected/At Risk (%),(12.5%)
same,Contusion: # Events,2
same,Contusion: Affected/At Risk,2/16
same,Contusion: Affected/At Risk (%),(12.5%)
same,Corneal abrasion: # Events,0
same,Corneal abrasion: Affected/At Risk,0/16
same,Corneal abrasion: Affected/At Risk (%),(0%)
same,Corneal infection: # Events,2
same,Corneal infection: Affected/At Risk,1/16
same,Corneal infection: Affected/At Risk (%),(6.25%)
same,Cough: # Events,5
same,Cough: Affected/At Risk,4/16
same,Cough: Affected/At Risk (%),(25%)
same,Decreased appetite: # Events,2
same,Decreased appetite: Affected/At Risk,2/16
same,Decreased appetite: Affected/At Risk (%),(12.5%)
same,Dehydration: # Events,4
same,Dehydration: Affected/At Risk,3/16
same,Dehydration: Affected/At Risk (%),(18.75%)
same,Depression: # Events,4
same,Depression: Affected/At Risk,4/16
same,Depression: Affected/At Risk (%),(25%)
same,Diarrhoea: # Events,10
same,Diarrhoea: Affected/At Risk,5/16
same,Diarrhoea: Affected/At Risk (%),(31.25%)
same,Dizziness: # Events,4
same,Dizziness: Affected/At Risk,1/16
same,Dizziness: Affected/At Risk (%),(6.25%)
same,Drug eruption: # Events,1
same,Drug eruption: Affected/At Risk,1/16
same,Drug eruption: Affected/At Risk (%),(6.25%)
same,Dry eye: # Events,4
same,Dry eye: Affected/At Risk,4/16
same,Dry eye: Affected/At Risk (%),(25%)
same,Dry skin: # Events,0
same,Dry skin: Affected/At Risk,0/16
same,Dry skin: Affected/At Risk (%),(0%)
same,Dyspepsia: # Events,2
same,Dyspepsia: Affected/At Risk,2/16
same,Dyspepsia: Affected/At Risk (%),(12.5%)
same,Dysphagia: # Events,4
same,Dysphagia: Affected/At Risk,3/16
same,Dysphagia: Affected/At Risk (%),(18.75%)
same,Dyspnoea exertional: # Events,0
same,Dyspnoea exertional: Affected/At Risk,0/16
same,Dyspnoea exertional: Affected/At Risk (%),(0%)
same,Dyspnoea: # Events,7
same,Dyspnoea: Affected/At Risk,5/16
same,Dyspnoea: Affected/At Risk (%),(31.25%)
same,Embolism: # Events,0
same,Embolism: Affected/At Risk,0/16
same,Embolism: Affected/At Risk (%),(0%)
same,Enamel anomaly: # Events,1
same,Enamel anomaly: Affected/At Risk,1/16
same,Enamel anomaly: Affected/At Risk (%),(6.25%)
same,Epidural lipomatosis: # Events,0
same,Epidural lipomatosis: Affected/At Risk,0/16
same,Epidural lipomatosis: Affected/At Risk (%),(0%)
same,Epstein-Barr virus infection: # Events,0
same,Epstein-Barr virus infection: Affected/At Risk,0/16
same,Epstein-Barr virus infection: Affected/At Risk (%),(0%)
same,Erectile dysfunction: # Events,0
same,Erectile dysfunction: Affected/At Risk,0/16
same,Erectile dysfunction: Affected/At Risk (%),(0%)
same,Eye irritation: # Events,0
same,Eye irritation: Affected/At Risk,0/16
same,Eye irritation: Affected/At Risk (%),(0%)
same,Eye pain: # Events,4
same,Eye pain: Affected/At Risk,2/16
same,Eye pain: Affected/At Risk (%),(12.5%)
same,Eye pruritus: # Events,1
same,Eye pruritus: Affected/At Risk,1/16
same,Eye pruritus: Affected/At Risk (%),(6.25%)
same,Fall: # Events,1
same,Fall: Affected/At Risk,1/16
same,Fall: Affected/At Risk (%),(6.25%)
same,Fatigue: # Events,7
same,Fatigue: Affected/At Risk,3/16
same,Fatigue: Affected/At Risk (%),(18.75%)
same,Flatulence: # Events,2
same,Flatulence: Affected/At Risk,1/16
same,Flatulence: Affected/At Risk (%),(6.25%)
same,Flushing: # Events,1
same,Flushing: Affected/At Risk,1/16
same,Flushing: Affected/At Risk (%),(6.25%)
same,Fungal infection: # Events,0
same,Fungal infection: Affected/At Risk,0/16
same,Fungal infection: Affected/At Risk (%),(0%)
same,Gamma-glutamyltransferase increased: # Events,4
same,Gamma-glutamyltransferase increased: Affected/At Risk,4/16
same,Gamma-glutamyltransferase increased: Affected/At Risk (%),(25%)
same,Gastric ulcer: # Events,1
same,Gastric ulcer: Affected/At Risk,1/16
same,Gastric ulcer: Affected/At Risk (%),(6.25%)
same,Gastrooesophageal reflux disease: # Events,1
same,Gastrooesophageal reflux disease: Affected/At Risk,1/16
same,Gastrooesophageal reflux disease: Affected/At Risk (%),(6.25%)
same,Generalised oedema: # Events,0
same,Generalised oedema: Affected/At Risk,0/16
same,Generalised oedema: Affected/At Risk (%),(0%)
same,Genital infection fungal: # Events,1
same,Genital infection fungal: Affected/At Risk,1/16
same,Genital infection fungal: Affected/At Risk (%),(6.25%)
same,Glaucoma: # Events,1
same,Glaucoma: Affected/At Risk,1/16
same,Glaucoma: Affected/At Risk (%),(6.25%)
same,Glucose urine present: # Events,0
same,Glucose urine present: Affected/At Risk,0/16
same,Glucose urine present: Affected/At Risk (%),(0%)
same,Graft versus host disease in gastrointestinal tract: # Events,0
same,Graft versus host disease in gastrointestinal tract: Affected/At Risk,0/16
same,Graft versus host disease in gastrointestinal tract: Affected/At Risk (%),(0%)
same,Gynaecomastia: # Events,1
same,Gynaecomastia: Affected/At Risk,1/16
same,Gynaecomastia: Affected/At Risk (%),(6.25%)
same,Haematuria: # Events,1
same,Haematuria: Affected/At Risk,1/16
same,Haematuria: Affected/At Risk (%),(6.25%)
same,Hair growth abnormal: # Events,0
same,Hair growth abnormal: Affected/At Risk,0/16
same,Hair growth abnormal: Affected/At Risk (%),(0%)
same,Headache: # Events,3
same,Headache: Affected/At Risk,3/16
same,Headache: Affected/At Risk (%),(18.75%)
same,Hodgkin's disease recurrent: # Events,0
same,Hodgkin's disease recurrent: Affected/At Risk,0/16
same,Hodgkin's disease recurrent: Affected/At Risk (%),(0%)
same,Hordeolum: # Events,0
same,Hordeolum: Affected/At Risk,0/16
same,Hordeolum: Affected/At Risk (%),(0%)
same,Hot flush: # Events,0
same,Hot flush: Affected/At Risk,0/16
same,Hot flush: Affected/At Risk (%),(0%)
same,Hyperglycemia: # Events,0
same,Hyperglycemia: Affected/At Risk,0/16
same,Hyperglycemia: Affected/At Risk (%),(0%)
same,Hyperhidrosis: # Events,1
same,Hyperhidrosis: Affected/At Risk,1/16
same,Hyperhidrosis: Affected/At Risk (%),(6.25%)
same,Hyperkalaemia: # Events,2
same,Hyperkalaemia: Affected/At Risk,2/16
same,Hyperkalaemia: Affected/At Risk (%),(12.5%)
same,Hypertension: # Events,5
same,Hypertension: Affected/At Risk,2/16
same,Hypertension: Affected/At Risk (%),(12.5%)
same,Hyperthyroidism: # Events,1
same,Hyperthyroidism: Affected/At Risk,1/16
same,Hyperthyroidism: Affected/At Risk (%),(6.25%)
same,Hypertriglyceridaemia: # Events,1
same,Hypertriglyceridaemia: Affected/At Risk,1/16
same,Hypertriglyceridaemia: Affected/At Risk (%),(6.25%)
same,Hyperuricaemia: # Events,2
same,Hyperuricaemia: Affected/At Risk,1/16
same,Hyperuricaemia: Affected/At Risk (%),(6.25%)
same,Hypoaesthesia: # Events,0
same,Hypoaesthesia: Affected/At Risk,0/16
same,Hypoaesthesia: Affected/At Risk (%),(0%)
same,Hypocalcaemia: # Events,4
same,Hypocalcaemia: Affected/At Risk,1/16
same,Hypocalcaemia: Affected/At Risk (%),(6.25%)
same,Hypogonadism: # Events,0
same,Hypogonadism: Affected/At Risk,0/16
same,Hypogonadism: Affected/At Risk (%),(0%)
same,Hypokalaemia: # Events,3
same,Hypokalaemia: Affected/At Risk,2/16
same,Hypokalaemia: Affected/At Risk (%),(12.5%)
same,Hypomagnesaemia: # Events,1
same,Hypomagnesaemia: Affected/At Risk,1/16
same,Hypomagnesaemia: Affected/At Risk (%),(6.25%)
same,Hyponatraemia: # Events,0
same,Hyponatraemia: Affected/At Risk,0/16
same,Hyponatraemia: Affected/At Risk (%),(0%)
same,Hypophosphataemia: # Events,1
same,Hypophosphataemia: Affected/At Risk,1/16
same,Hypophosphataemia: Affected/At Risk (%),(6.25%)
same,Hypothermia: # Events,1
same,Hypothermia: Affected/At Risk,1/16
same,Hypothermia: Affected/At Risk (%),(6.25%)
same,Hypothyroidism: # Events,2
same,Hypothyroidism: Affected/At Risk,1/16
same,Hypothyroidism: Affected/At Risk (%),(6.25%)
same,Hypoxia: # Events,5
same,Hypoxia: Affected/At Risk,2/16
same,Hypoxia: Affected/At Risk (%),(12.5%)
same,Impaired healing: # Events,0
same,Impaired healing: Affected/At Risk,0/16
same,Impaired healing: Affected/At Risk (%),(0%)
same,Influenza like illness: # Events,2
same,Influenza like illness: Affected/At Risk,1/16
same,Influenza like illness: Affected/At Risk (%),(6.25%)
same,Influenza: # Events,2
same,Influenza: Affected/At Risk,1/16
same,Influenza: Affected/At Risk (%),(6.25%)
same,Insomnia: # Events,0
same,Insomnia: Affected/At Risk,0/16
same,Insomnia: Affected/At Risk (%),(0%)
same,Irritability: # Events,0
same,Irritability: Affected/At Risk,0/16
same,Irritability: Affected/At Risk (%),(0%)
same,Joint range of motion decreased: # Events,1
same,Joint range of motion decreased: Affected/At Risk,1/16
same,Joint range of motion decreased: Affected/At Risk (%),(6.25%)
same,Lacrimation increased: # Events,1
same,Lacrimation increased: Affected/At Risk,1/16
same,Lacrimation increased: Affected/At Risk (%),(6.25%)
same,Leukaemia recurrent: # Events,0
same,Leukaemia recurrent: Affected/At Risk,0/16
same,Leukaemia recurrent: Affected/At Risk (%),(0%)
same,Leukocytosis: # Events,0
same,Leukocytosis: Affected/At Risk,0/16
same,Leukocytosis: Affected/At Risk (%),(0%)
same,Ligament sprain: # Events,0
same,Ligament sprain: Affected/At Risk,0/16
same,Ligament sprain: Affected/At Risk (%),(0%)
same,Limb injury: # Events,0
same,Limb injury: Affected/At Risk,0/16
same,Limb injury: Affected/At Risk (%),(0%)
same,Macular degeneration: # Events,1
same,Macular degeneration: Affected/At Risk,1/16
same,Macular degeneration: Affected/At Risk (%),(6.25%)
same,Migraine: # Events,1
same,Migraine: Affected/At Risk,1/16
same,Migraine: Affected/At Risk (%),(6.25%)
same,Muscle spasms: # Events,0
same,Muscle spasms: Affected/At Risk,0/16
same,Muscle spasms: Affected/At Risk (%),(0%)
same,Muscle spasticity: # Events,0
same,Muscle spasticity: Affected/At Risk,0/16
same,Muscle spasticity: Affected/At Risk (%),(0%)
same,Muscular weakness: # Events,1
same,Muscular weakness: Affected/At Risk,1/16
same,Muscular weakness: Affected/At Risk (%),(6.25%)
same,Musculoskeletal chest pain: # Events,0
same,Musculoskeletal chest pain: Affected/At Risk,0/16
same,Musculoskeletal chest pain: Affected/At Risk (%),(0%)
same,Myalgia: # Events,1
same,Myalgia: Affected/At Risk,1/16
same,Myalgia: Affected/At Risk (%),(6.25%)
same,Nail disorder: # Events,0
same,Nail disorder: Affected/At Risk,0/16
same,Nail disorder: Affected/At Risk (%),(0%)
same,Nausea: # Events,6
same,Nausea: Affected/At Risk,4/16
same,Nausea: Affected/At Risk (%),(25%)
same,Neck pain: # Events,0
same,Neck pain: Affected/At Risk,0/16
same,Neck pain: Affected/At Risk (%),(0%)
same,Nephrotic syndrome: # Events,1
same,Nephrotic syndrome: Affected/At Risk,1/16
same,Nephrotic syndrome: Affected/At Risk (%),(6.25%)
same,Neuropathy peripheral: # Events,1
same,Neuropathy peripheral: Affected/At Risk,1/16
same,Neuropathy peripheral: Affected/At Risk (%),(6.25%)
same,Neutrophil count decreased: # Events,0
same,Neutrophil count decreased: Affected/At Risk,0/16
same,Neutrophil count decreased: Affected/At Risk (%),(0%)
same,Nocturia: # Events,0
same,Nocturia: Affected/At Risk,0/16
same,Nocturia: Affected/At Risk (%),(0%)
same,Non-cardiac chest pain: # Events,3
same,Non-cardiac chest pain: Affected/At Risk,3/16
same,Non-cardiac chest pain: Affected/At Risk (%),(18.75%)
same,Obesity: # Events,0
same,Obesity: Affected/At Risk,0/16
same,Obesity: Affected/At Risk (%),(0%)
same,Oedema peripheral: # Events,5
same,Oedema peripheral: Affected/At Risk,4/16
same,Oedema peripheral: Affected/At Risk (%),(25%)
